Data on eight compounds can be found in article PMC6433232, “Targeting mitochondria in cancer therapy could provide a basis for the selective anti-cancer activity” (PLoS ONE, 2019).

A word on the EC50: it is the midpoint of the concentration-response curve.

SMILES strings stand for the structures.

In data set [1] the test system is pancreatic cancer MIA PaCa-2 cells. Kind of data set: cells. Particulars: for EC50 / CC50: Homo sapiens; for EC50: MIA PaCa-2, read-out: EC50, μM MIA PaCa-2; for CC50: MIA PaCa-2, read-out: LC50 MIA PaCa-2. The procedure:
Fig 1 A, Structure of NSC130362. B, Dose response curve of NSC130362 in MIA PaCa-2 cells. Cells were pre-incubated with NSC130362 for 2 h followed by addition of ATO (5 μM) and incubation for an additional 24 h. At the end of the treatment, the ratio of dead cells was determined by a CellTiterGlo reagent.

For data set [2], the system named is hepatocytes. The data set can be described thus: Hydrogen peroxide cell-based assay (ROS induction), hepatocytes. More on the design: species or system Human. Conditions: 30 μM; hydrogen peroxide level relative to DMSO-treated cells (100%). The procedure: Cells were incubated for 2 h with either compounds (30 μM) or DMSO in a 96-well plate. After the treatment, 80 μl of cell culture medium was collected and the level of hydrogen peroxide was determined using a Hydrogen Peroxide Cell-Based Assay kit (Cayman).
Cells were incubated with the compounds for 4 h and the level of ROS induction was measured by a hydrogen peroxide cell-based assay kit. Compounds were assayed at a fixed concentration of 30 μM and the measured level of hydrogen peroxide was expressed as percentage in relation to DMSO-treated cells (100%). […] This distinction was more evident for compounds with the highest selective cytotoxicity index. […] We conclude that the selective induction of ROS in cancer cells is required but not sufficient factor for the selective anti-tumor activity.

Data set [3] has as its target T1, human GSR enzyme (recombinant GSR) (Homo sapiens, UniProt P00390).
T1 construct: made in house; host or cells: E. coli BL21(DE3)
T1 sequence (P00390 44-522): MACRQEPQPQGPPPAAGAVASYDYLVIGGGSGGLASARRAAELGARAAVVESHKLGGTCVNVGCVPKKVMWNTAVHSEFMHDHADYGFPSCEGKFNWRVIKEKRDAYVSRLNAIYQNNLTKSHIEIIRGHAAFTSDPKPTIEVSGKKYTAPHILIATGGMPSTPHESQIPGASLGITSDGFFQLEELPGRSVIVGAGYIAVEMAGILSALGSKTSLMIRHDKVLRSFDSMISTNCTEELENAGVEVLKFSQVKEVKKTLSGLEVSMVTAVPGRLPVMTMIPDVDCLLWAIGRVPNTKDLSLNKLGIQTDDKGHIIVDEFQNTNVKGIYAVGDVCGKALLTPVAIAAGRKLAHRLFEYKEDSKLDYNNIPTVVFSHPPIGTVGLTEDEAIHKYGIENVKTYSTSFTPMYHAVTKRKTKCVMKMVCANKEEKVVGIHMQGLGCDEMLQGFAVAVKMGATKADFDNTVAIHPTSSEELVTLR
The data set can be described thus: Glutathione reductase (GSR) activity assay. It is filed as biochemical. Conditions: 2 h at 25°C, read-out: GSR, enzyme residual activity as compared to DMSO-treated sample. The procedure:
Recombinant GSR (0.5 u/well) in a 96-well plate was incubated in the GSR assay buffer (50 mM potassium phosphate buffer, pH 7.5 supplemented with 1 mM EDTA), 100 μl with and without compound (30 μM) for 2 h at 25°C. At the end of incubation, 100 μl of solution containing NADPH (0.087 mM), oxidized glutathione (GSSG) (0.95 mM) and 1 μl of the reagent that detects ratio of GSSG to reduced glutathione (GSH) (Abcam) were added and the mixture was incubated for an additional 1 h at 25°C. GSR activity was measured by using 490-nm excitation and monitoring fluorescence at 520 nm with a fluorescence plate reader. One unit of GSR activity was defined as the amount of enzyme required to produce 1 μM of GSH in a total reaction volume of 200 μl in 1 minute in the GSR assay buffer containing NADPH (0.087 mM), GSSG (0.95 mM) and 1 μl of GSH/GSSG ratio detection reagent (Abcam).
Next, we evaluated the inhibitory activity of the selected compounds against human GSR enzyme using recombinant GSR and Abcam GSH/GSSG ratio detection reagent (Table 1). Briefly, GSR activity was measured by following oxidized glutathione (GSSG) reduction in the presence of NADPH and expressed as percentage of residual activity with respect to DMSO-treated enzyme. The residual activity of GSR for both the non-toxic and toxic compounds was quite heterogeneous, ranging from 100% (compounds 38) to 3% (compound 32). […] We thus conclude that GSR inhibitory activity alone cannot be used to predict the selective cytotoxicity index.

Data set [4] concerns the target T2, human GAPDH enzyme (Homo sapiens, UniProt P04406).
T2 construct: endogenous in cells; host or cells: MIA PaCa-2 cells
The data set can be described thus: GAPDH activity assay in MIA PaCa-2 cells. It counts as cell-based. Particulars: 2 h, read-out: GAPDH, enzyme residual activity as compared to DMSO-treated sample. The procedure:
Cells were incubated for 2 h with either compounds (30 μM) or DMSO in a 6-well plate. Next, cells were collected in 200 μl of PBS and disrupted by sonication. Insoluble material was removed by centrifugation. The level of GAPDH activity was determined by GAPDH activity assay kit (BioVision).
As a final step, we evaluated the inhibitory activity of the selected compounds against human GAPDH enzyme in a cell-based assay using MIA PaCa-2 cells (Table 1). Cells were pre-incubated with compounds for 2 h at 37°C followed by cell lysis using sonication and GAPDH activity assay. The ability of compounds to inhibit GAPDH was expressed as percentage of GAPDH residual activity with respect to DMSO-treated cells. […] Similar to the GSR activity assay, only two of the most toxic compounds 31 and 32, were able to inhibit GAPDH by 95 and 97%, respectively.

Data set [5] deals with PANC1 pancreatic carcinoma cells. The data set can be described thus: Combined treatment with pancreatic cancer drugs, PANC1 cells. It counts as cell-based, Human. Particulars: NSC130362 10 μM 2 h, then drugs 10 μM 24 h. The procedure: (§1) Fig 2 Combined treatment of NSC130362 with pancreatic cancer drugs against PANC1 and YAPC cells. Cells were pre-incubated with NSC130362 (10 μM) for 2 h followed by addition of drugs (10 μM) and incubation for an additional 24 h. […] The first bar is NSC130362 alone. *, P<0.05.

In data set [6] the test system is YAPC pancreatic carcinoma cells. The data set can be described thus: Combined treatment with pancreatic cancer drugs, YAPC cells. It is filed as cell-based, Human. Conditions: NSC130362 10 μM 2 h, then drugs 10 μM 24 h. The procedure:
as §1

The subject of data set [7] is chemotherapy resistant prostate carcinoma cells. The data set can be described thus: Combined treatment with ATO, docetaxel, MDV3100, prostate cancer cells. It is filed as cell-based. Particulars: NSC130362 10 μM 2 h. The procedure:
Fig 3 Combined treatment of NSC130362 with ATO, docetaxel, and MDV3100 against prostate cancer cells. Cells were pre-incubated with NSC130362 (10 μM) for 2 h followed by addition of drugs (10 μM) and incubation for an additional 24 h. […] The first bar in the treatment of each cell line is NSC130362 alone. *, P<0.05.

For data set [8] the following is noted: in words; cited from earlier work.
For data set [9] the following is noted: in words; cited from earlier work. This is another data set of the same source.
The subject of data set [10] is human primary hepatocytes. Conditions: for EC50: read-out: EC50, μM Hepatocytes ATO, in the presence of ATO (5 μM), SD does not exceed 10%.
From the text: We selected hepatocytes as normal cells because hepatocytes are mediate toxicity to multiple drugs and are used as a standard to assess toxicity of drugs in vitro [28]. […] For comparison with the standard of care, doxorubicin was also included in this analysis.

T2 sequence (P04406 whole entry): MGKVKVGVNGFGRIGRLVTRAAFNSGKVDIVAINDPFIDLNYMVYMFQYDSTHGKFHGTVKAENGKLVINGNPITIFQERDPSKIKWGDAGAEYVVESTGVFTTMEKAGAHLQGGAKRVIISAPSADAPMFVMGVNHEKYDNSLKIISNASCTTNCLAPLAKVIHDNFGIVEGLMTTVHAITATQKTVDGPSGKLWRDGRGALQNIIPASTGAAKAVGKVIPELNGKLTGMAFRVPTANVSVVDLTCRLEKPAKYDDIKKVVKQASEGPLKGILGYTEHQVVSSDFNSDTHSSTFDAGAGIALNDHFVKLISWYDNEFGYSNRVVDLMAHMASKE

As for `O=C1C(Cl)=C(NCCO)C(=O)c2ccccc21` [compound 17], the EC50 in data set [1] amounted to 9.8 µM. Besides, the CC50 in [1] amounted to 9.8 µM. The “dose-response in MIA PaCa-2 cells” value in data set [1] (in the presence of ATO (5 μM), 24 h) is reported as “induced a dose-response over a hundred-fold concentration range”. Besides, in data set [2], the “ROS increase, % Hepatocytes” value amounted to 132%. Besides, the remaining activity at 30 µM amounted to 65% in data set [3] and 89% in data set [4]. In [5], the “effect on apoptosis induction by pancreatic cancer drugs, PANC1” value was “significantly increased the ability of all tested pancreatic cancer drugs”. The “effect on apoptosis induction by pancreatic cancer drugs, YAPC” value in data set [6] is “significantly increased the ability of all tested pancreatic cancer drugs”. For the same compound, the “potentiation of docetaxel-induced cytotoxicity” value in data set [7] (then docetaxel 10 μM 24 h) was “potentiated docetaxel-induced cytotoxicity, but to a lesser extent”. Besides, in data set [7] (then drugs 10 μM 24 h), the “potentiation of ATO or MDV3100 effect on cell viability” value is recorded as “efficiently potentiated the effect on cell viability of either ATO or MDV3100”. Further, the “half-life in the mouse bloodstream” value in data set [8] is reported as “short half-life”. The “anti-tumor activity in vivo” value in data set [9] is given as “demonstrated anti-tumor activity in vivo”.
Consider `COCCNC1=C(Cl)C(=O)c2ccccc2C1=O` [compound 21], for which, in data set [1], the EC50 came to 13.8 µM and the CC50 was 13.8 µM. Further, in data set [2], the “ROS increase, % Hepatocytes” value is 154%. Besides, the remaining activity at 30 µM in [3] was 65%. In addition, in data set [4], the remaining activity at 30 µM came out at 100%. Besides, the “increase in toxicity to hepatocytes” value in data set [10] (versus compound 3) is “approximately 3 fold”.
As to `O=C1C(Cl)=C(Nc2ccccc2)C(=O)c2ccccc21` [compound 39], in [1], the EC50 is 3.9 µM and the CC50 was 3.9 µM. Further, in [1] (versus compound 1), the reduced anti-cancer activity turned out to be 8 fold. Further, in [2], the “ROS increase, % Hepatocytes” value was 174%. Also, in data set [3], the remaining activity at 30 µM was 92%. Moreover, the remaining activity at 30 µM in [4] is 93%.
Take `Cc1ccccc1NC1=C(Cl)C(=O)c2ccccc2C1=O` [compound 40]: in [1], the EC50 was determined as 78.5 µM and the CC50 was determined as 78.5 µM. Moreover, the “ROS increase, % Hepatocytes” value in [2] worked out at 122%. Besides, in [3], the remaining activity at 30 µM was 72%. For the same compound, the remaining activity at 30 µM in data set [4] was found to be 88%.
Turning to `COC1=C(N(C)C)C(=O)c2ccccc2C1=O` [compound 53], in data set [1], the EC50 came out at 23.4 µM and the CC50 came out at 23.4 µM. In data set [2], the “ROS increase, % Hepatocytes” value is 117%. Besides, in data set [3], the remaining activity at 30 µM amounted to 61%. Also, the remaining activity at 30 µM in data set [4] came to 95%.
Consider `O=C1C=C(SCCO)C(=O)c2ccccc21` [compound 60], for which the values for the EC50 in data set [1] and in data set [10] were 6.2 µM and 1.7 µM, respectively. Moreover, in [1], the CC50 came out at 6.2 µM. The “ROS increase, % Hepatocytes” value in data set [2] was 386%. Besides, the remaining activity at 30 µM in [3] stood at 38%; in data set [4] it was 88%.
Take `CCNC1=CC(=O)c2ncccc2C1=O` [compound 66]: the EC50 was 4.5 µM in data set [1] and > 90 µM in [10]. In [1], the CC50 worked out at 4.5 µM. Moreover, the improved anti-cancer activity result in data set [1] (versus compound 49) is given as “more than 30 fold”. For the same compound, the “ROS increase, % Hepatocytes” value in data set [2] was 173%. For the same compound, the remaining activity at 30 µM in [3] is 59%; in data set [4], 93%.
As for `O=C1C(Nc2ccccc2)=CC(=O)c2ncccc21` [compound 67, reference compound], the EC50 in data set [1] is 1 µM; in [10], 19.4 µM. For the same compound, the CC50 in [1] is 1 µM. Also, in [1] (versus compound 64), the “increase in anti-cancer activity” value is “approximately 10 fold”. In data set [2], the “ROS increase, % Hepatocytes” value was determined as 179%. The remaining activity at 30 µM in data set [3] worked out at 53%; in data set [4], 76%. The “decrease in toxicity to hepatocytes” value in data set [10] (versus compound 64) was 3 fold.
